Values quoted from earlier work in US8691283B2, “Standardized bee venom preparation” (priority 2000, dated 2014).

Test system: hypophyseal-adrenal system
Details: melittin stimulates the hypophyseal-adrenal system and produces cortisone

Which “potency relative to hydrocortisone” value does the source give for CC[C@H](C)[C@H](NC(=O)CN)C(=O)NCC(=O)N[C@@H](C)C(=O)N[C@H](C(=O)N[C@@H](CC(C)C)C(=O)N[C@@H](CCCCN)C(=O)N[C@H](C(=O)N[C@@H](CC(C)C)C(=O)N[C@H](C(=O)N[C@H](C(=O)NCC(=O)N[C@@H](CC(C)C)C(=O)N1CCC[C@H]1C(=O)N[C@@H](C)C(=O)N[C@@H](CC(C)C)C(=O)N[C@H](C(=O)N[C@@H](CO)C(=O)N[C@@H](Cc1c[nH]c2ccccc12)C(=O)N[C@H](C(=O)N[C@@H](CCCCN)C(=O)N[C@@H](CCCNC(=N)N)C(=O)N[C@@H](CCCCN)C(=O)N[C@@H](CCCNC(=N)N)C(=O)N[C@@H](CCC(N)=O)C(=O)N[C@@H](CCC(N)=O)C(N)=O)[C@@H](C)CC)[C@@H](C)CC)[C@@H](C)O)[C@@H](C)O)C(C)C)C(C)C [melittin, Melittin] here?
Its value is 100 times.
